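Tested at 5 concentrations; 48 h exposure; 96-well plates; endpoints linearly interpolated, else capped at highest concentration. The concentration for 50% growth inhibition is given as GI50. TGI marks complete inhibition of growth.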
Key:
Test in all cases: DTP human tumour cell line panel, 48 h
OVCAR-5 ovarian = system: OVCAR-5 ovarian
UACC-257 melanoma = system: UACC-257 melanoma
COLO 205 colon = system: COLO 205 colon
HOP-62 NSCLC = system: HOP-62 NSCLC
MDA-MB-435 = system: MDA-MB-435
NCI-H23 lung = system: NCI-H23 lung
ACHN renal = system: ACHN renal
BT-549 breast = system: BT-549 breast
786-0 renal = system: 786-0 renal
EKVX NSCLC = system: EKVX NSCLC
SK-MEL-28 melanoma = system: SK-MEL-28 melanoma
HCT-116 colon = system: HCT-116 colon
A549 NSCLC = system: A549 NSCLC
HS 578T breast = system: HS 578T breast
PC-3 prostate = system: PC-3 prostate
NCI-H226 lung = system: NCI-H226 lung
NCI-H460 lung = system: NCI-H460 lung
NCI/ADR-RES ovarian = system: NCI/ADR-RES ovarian
SW-620 colon = system: SW-620 colon
SK-OV-3 ovarian = system: SK-OV-3 ovarian
UACC-62 melanoma = system: UACC-62 melanoma
OVCAR-3 ovarian = system: OVCAR-3 ovarian
TK-10 renal = system: TK-10 renal
OVCAR-4 ovarian = system: OVCAR-4 ovarian
HCT-15 colon = system: HCT-15 colon
UO-31 renal = system: UO-31 renal
HT29 colon = system: HT29 colon
M14 melanoma = system: M14 melanoma
A498 renal = system: A498 renal
CAKI-1 renal = system: CAKI-1 renal
KM12 colon = system: KM12 colon
MDA-MB-231 breast = system: MDA-MB-231 breast
U251 CNS = system: U251 CNS
MALME-3M melanoma = system: MALME-3M melanoma
CCRF-CEM leukemia = system: CCRF-CEM leukemia
SR leukemia = system: SR leukemia
DU-145 prostate = system: DU-145 prostate
LOX IMVI melanoma = system: LOX IMVI melanoma
SNB-19 CNS = system: SNB-19 CNS
MOLT-4 leukemia = system: MOLT-4 leukemia
T-47D breast = system: T-47D breast
SF-268 CNS = system: SF-268 CNS
RPMI-8226 leukemia = system: RPMI-8226 leukemia
SNB-75 CNS = system: SNB-75 CNS
SF-539 CNS = system: SF-539 CNS
NCI-H522 lung = system: NCI-H522 lung
MCF7 breast = system: MCF7 breast
RXF 393 renal = system: RXF 393 renal
SK-MEL-2 melanoma = system: SK-MEL-2 melanoma
HOP-92 NSCLC = system: HOP-92 NSCLC
K-562 leukemia = system: K-562 leukemia
OVCAR-8 ovarian = system: OVCAR-8 ovarian
IGROV1 ovarian = system: IGROV1 ovarian
SN12C renal = system: SN12C renal
HL-60(TB) leukemia = system: HL-60(TB) leukemia
SF-295 CNS = system: SF-295 CNS
HCC-2998 colon = system: HCC-2998 colon

`Oc1[nH]c2ccc(Cl)cc2c1/C=c1/ccc2c(c1)N=C(c1ccc(F)cc1)N=2` was tested, and the GI50 (OVCAR-5 ovarian) was 4.17 µM, the TGI (OVCAR-5 ovarian) was 14.7 µM and the GI50 (UACC-257 melanoma) was 1.89 µM. It also gave a TGI (UACC-257 melanoma) of 4.35 µM, a GI50 (COLO 205 colon) of 2.32 µM and a TGI (COLO 205 colon) of 5.23 µM. The GI50 (HOP-62 NSCLC) was 1.77 µM, the TGI (HOP-62 NSCLC) was 3.23 µM and the GI50 (MDA-MB-435) was 1.62 µM. It also gave a TGI (MDA-MB-435) of 3.45 µM, a GI50 (NCI-H23 lung) of 1.65 µM and a TGI (NCI-H23 lung) of 3.59 µM. For the same compound, the GI50 (ACHN renal) was 3.19 µM, the TGI (ACHN renal) was 11.9 µM and the GI50 (BT-549 breast) was 1.38 µM. It also gave a TGI (BT-549 breast) of 3.11 µM, a GI50 (786-0 renal) of 1.8 µM and a TGI (786-0 renal) of 3.9 µM. The GI50 (EKVX NSCLC) was 3.37 µM, the TGI (EKVX NSCLC) was 15.9 µM and the GI50 (SK-MEL-28 melanoma) was 1.78 µM. The TGI (SK-MEL-28 melanoma) was 3.48 µM, the GI50 (HCT-116 colon) was 1.49 µM and the TGI (HCT-116 colon) was 2.81 µM. It also gave a GI50 (A549 NSCLC) of 1.74 µM, a TGI (A549 NSCLC) of 3.61 µM and a GI50 (HS 578T breast) of 2.31 µM. It also gave a TGI (HS 578T breast) of 7.51 µM, a GI50 (PC-3 prostate) of 2.14 µM and a TGI (PC-3 prostate) of 5.65 µM. For the same compound, the GI50 (NCI-H226 lung) was 8.22 µM, the TGI (NCI-H226 lung) was 23.2 µM and the GI50 (NCI-H460 lung) was 2.05 µM. It also gave a TGI (NCI-H460 lung) of 4.52 µM, a GI50 (NCI/ADR-RES ovarian) of 1.87 µM and a TGI (NCI/ADR-RES ovarian) of 3.58 µM. It also gave a GI50 (SW-620 colon) of 1.89 µM, a TGI (SW-620 colon) of 3.74 µM and a GI50 (SK-OV-3 ovarian) of 7.07 µM. For the same compound, the TGI (SK-OV-3 ovarian) was 19.1 µM, the GI50 (UACC-62 melanoma) was 2.5 µM and the TGI (UACC-62 melanoma) was 8.06 µM. The GI50 (OVCAR-3 ovarian) was 1.92 µM, the TGI (OVCAR-3 ovarian) was 3.58 µM and the GI50 (TK-10 renal) was 2.83 µM. For the same compound, the TGI (TK-10 renal) was 4.88 µM, the GI50 (OVCAR-4 ovarian) was 1.64 µM and the TGI (OVCAR-4 ovarian) was 3.1 µM. For the same compound, the GI50 (HCT-15 colon) was 2.04 µM, the TGI (HCT-15 colon) was 4.47 µM and the GI50 (UO-31 renal) was 2.3 µM. For the same compound, the TGI (UO-31 renal) was 11 µM, the GI50 (HT29 colon) was 1.93 µM and the TGI (HT29 colon) was 3.5 µM. It also gave a GI50 (M14 melanoma) of 1.52 µM, a TGI (M14 melanoma) of 2.98 µM and a GI50 (A498 renal) of 3.36 µM. For the same compound, the TGI (A498 renal) was 16.5 µM, the GI50 (CAKI-1 renal) was 4.08 µM and the TGI (CAKI-1 renal) was 20.3 µM. For the same compound, the GI50 (KM12 colon) was 2.54 µM, the TGI (KM12 colon) was 6.53 µM and the GI50 (MDA-MB-231 breast) was 1.63 µM. The TGI (MDA-MB-231 breast) was 4.18 µM, the GI50 (U251 CNS) was 1.81 µM and the TGI (U251 CNS) was 3.5 µM. The GI50 (MALME-3M melanoma) was 1.83 µM, the TGI (MALME-3M melanoma) was 3.95 µM and the GI50 (CCRF-CEM leukemia) was 2.07 µM. It also gave a TGI (CCRF-CEM leukemia) of 4.93 µM, a GI50 (SR leukemia) of 2.11 µM and a TGI (SR leukemia) of 5.14 µM. It also gave a GI50 (DU-145 prostate) of 2.53 µM, a TGI (DU-145 prostate) of 5.06 µM and a GI50 (LOX IMVI melanoma) of 1.63 µM. The TGI (LOX IMVI melanoma) was 3.01 µM, the GI50 (SNB-19 CNS) was 2.08 µM and the TGI (SNB-19 CNS) was 5.14 µM. It also gave a GI50 (MOLT-4 leukemia) of 2.52 µM, a TGI (MOLT-4 leukemia) of 7.1 µM and a GI50 (T-47D breast) of 2.23 µM. It also gave a TGI (T-47D breast) of 6.17 µM, a GI50 (SF-268 CNS) of 2.16 µM and a TGI (SF-268 CNS) of 4.37 µM. The GI50 (RPMI-8226 leukemia) was 2.91 µM, the TGI (RPMI-8226 leukemia) was 12.2 µM and the GI50 (SNB-75 CNS) was 1.5 µM. It also gave a TGI (SNB-75 CNS) of 3.78 µM, a GI50 (SF-539 CNS) of 2.24 µM and a TGI (SF-539 CNS) of 5 µM. For the same compound, the GI50 (NCI-H522 lung) was 1.99 µM, the TGI (NCI-H522 lung) was 4.32 µM and the GI50 (MCF7 breast) was 1.33 µM. The TGI (MCF7 breast) was 2.83 µM, the GI50 (RXF 393 renal) was 1.89 µM and the TGI (RXF 393 renal) was 3.72 µM. It also gave a GI50 (SK-MEL-2 melanoma) of 2.87 µM, a TGI (SK-MEL-2 melanoma) of 6.81 µM and a GI50 (HOP-92 NSCLC) of 11.7 µM. It also gave a TGI (HOP-92 NSCLC) of 26.9 µM, a GI50 (K-562 leukemia) of 2.11 µM and a TGI (K-562 leukemia) of 4.48 µM. It also gave a GI50 (OVCAR-8 ovarian) of 1.96 µM, a TGI (OVCAR-8 ovarian) of 4.26 µM and a GI50 (IGROV1 ovarian) of 2.12 µM. The TGI (IGROV1 ovarian) was 4.42 µM, the GI50 (SN12C renal) was 2.71 µM and the TGI (SN12C renal) was 10.2 µM. The GI50 (HL-60(TB) leukemia) was 2.76 µM, the TGI (HL-60(TB) leukemia) was 7.83 µM and the GI50 (SF-295 CNS) was 7.02 µM. The TGI (SF-295 CNS) was 30.6 µM, the GI50 (HCC-2998 colon) was 4.68 µM and the TGI (HCC-2998 colon) was 15.9 µM.
